Assay results: patent publication US11667602B2, “Compounds and their use” (AstraZeneca AB, priority 2020, dated 2023)
Converted amounts (≈) assume the structure as drawn.

Tests used:
[1] = Human Plasma Protein Binding (Test B); type: in vitro ADME; settings: fraction unbound (fu)
Summary of the method: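 Values given as % free (fu) in human plasma, using the method of Wernevik et al. (2020). For compounds tested more than once, the arithmetic mean is given.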

[2] = Human Liver Microsomal Stability (Test C); type: in vitro ADME; settings: human, liver microsomes
Summary of the method: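 CLint (μl/min/mg protein) derived from compound depletion in human liver microsomes following a published standardized early-DMPK protocol; replicate determinations given as arithmetic mean.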

[3] = Human Hepatocyte Stability (Test D); type: in vitro ADME; settings: human, cryopreserved pooled human hepatocytes (LiverPool 10-Donor), geometric mean if run multiple times
Summary of the method: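 Intrinsic clearance (μL/min/10^6 cells), derived as kV/N from the log-linear loss of parent compound. Compound incubated at 37 °C with cryopreserved pooled human hepatocytes, 0.25×10^6 cells in 0.25 mL L-15; dosing solution 100 μM in acetonitrile. Singlicate incubations, cassette LC-MS; repeats reported as geometric mean.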

[4] = Rat Hepatocyte Stability (Test E); type: in vitro ADME; settings: rat, hepatocytes, geometric mean if run multiple times
Summary of the method: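 Intrinsic clearance in rat hepatocytes, expressed as μl/min/10^6 cells, following the literature integrated DMPK panel method. Repeat determinations combined as geometric mean.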

Solubility (Test F) = type: physicochemical; settings: arithmetic mean if run multiple times
Method: The assay was conducted according to the Solubility Assay described in pages 164-167 of Wernevik, J. et al., “A Fully Integrated Assay Panel for Early Drug Metabolism and Pharmacokinetics Profiling”, Assay and Drug Development Technologies, 2020, 18(4), 157-179. Data are reported in Table 36 as solubility ([…]. Where the assay was run multiple times for the same compound, the arithmetic mean is reported.

human RXFP1 = biological target: T1, human RXFP1 (Homo sapiens, UniProt Q9HBX9); assay: RXFP1 Hu cAMP (Test A); type: cell-based; set-up: expressed in transfected cells; host or cells: Jump-In T-REx CHO-K1 cells (ThermoFisher), induced with 10 ng/ml doxycycline for 24 h; settings: RXFP1 Hu cAMP; for EC50: read-out: Test A EC50
T1 sequence (Q9HBX9 1-757): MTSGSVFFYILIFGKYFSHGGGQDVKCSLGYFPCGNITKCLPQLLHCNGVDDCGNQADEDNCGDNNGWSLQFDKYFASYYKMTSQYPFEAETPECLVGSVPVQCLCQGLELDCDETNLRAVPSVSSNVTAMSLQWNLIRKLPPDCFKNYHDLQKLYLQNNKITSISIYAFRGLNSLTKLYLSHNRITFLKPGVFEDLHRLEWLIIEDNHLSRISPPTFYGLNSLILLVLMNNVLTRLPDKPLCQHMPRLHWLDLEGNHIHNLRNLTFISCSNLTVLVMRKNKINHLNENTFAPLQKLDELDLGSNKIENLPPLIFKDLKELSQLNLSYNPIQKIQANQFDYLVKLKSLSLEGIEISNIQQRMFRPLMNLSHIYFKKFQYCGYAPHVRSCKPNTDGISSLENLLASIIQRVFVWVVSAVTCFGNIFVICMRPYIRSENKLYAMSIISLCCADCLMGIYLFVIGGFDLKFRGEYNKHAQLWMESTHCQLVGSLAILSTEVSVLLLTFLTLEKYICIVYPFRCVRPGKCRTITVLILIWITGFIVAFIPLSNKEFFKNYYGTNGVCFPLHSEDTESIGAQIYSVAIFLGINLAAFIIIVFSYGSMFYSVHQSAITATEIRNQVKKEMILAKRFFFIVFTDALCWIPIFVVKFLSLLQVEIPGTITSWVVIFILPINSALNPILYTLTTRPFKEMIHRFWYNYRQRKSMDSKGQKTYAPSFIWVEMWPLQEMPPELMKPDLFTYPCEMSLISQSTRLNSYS
Summary of the method: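 Doxycycline-induced (10 ng/ml, 24 h) CHO-K1 cells stably expressing human RXFP1; cAMP read by competitive HTRF after 2 h at room temperature, with 0.5 mM IBMX final.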

Structure (SMILES)	Test B Human Plasma Protein Binding (% free) [1] [% free]	microsomal CLint [2] [µL/min/mg]	hepatocyte CLint at 1 µM [3] [µL/min/1e6 cells]	hepatocyte CLint [4] [µL/min/1e6 cells]	solubility (Solubility (Test F)) [µM]	Test A Sinf (human RXFP1) [%]	EC50 (human RXFP1) [nM]
COc1cc(F)c(O[C@H]2CC[C@@H](C(=O)O)CC2)cc1C(=O)N[C@@H]1[C@H]2CC[C@H](C2)[C@@H]1C(=O)Nc1ccc(C(F)F)cc1 [Example 181, (1S,4s)-4-(5-(((1S,2R,3S,4R)-3-((4-(Difluoromethyl)phenyl)carbamoyl)bicyclo[2.2.1]heptan-2-yl)carbamoyl)-2-fluoro-4-methoxyphenoxy)cyclohexane-1-carboxylic acid]	2.3	13	4.1	48	680 (≈ 391 µg/mL)	95	600
COc1cc(F)c(O[C@H]2CC[C@@H](C(=O)O)CC2)cc1C(=O)N[C@@H]1[C@H]2CC[C@H](C2)[C@@H]1C(=O)Nc1ccccc1 [Example 201, (1S,4s)-4-(2-Fluoro-4-methoxy-5-(((1S,2R,3S,4R)-3-(phenylcarbamoyl)bicyclo[2.2.1]heptan-2-yl)carbamoyl)phenoxy)cyclohexane-1-carboxylic acid]	1.6	23	7.6	190	940 (≈ 493 µg/mL)	98	7200
COc1cc(F)c(O[C@H]2CC[C@@H](C(=O)O)CC2)cc1C(=O)NC1=C(C(=O)Nc2ccc(F)c(C(F)(F)F)c2)CCCC1 [Example 213, (1s,4s)-4-(2-Fluoro-5-((2-((4-fluoro-3-(trifluoromethyl)phenyl)carbamoyl)cyclohex-1-en-1-yl)carbamoyl)-4-methoxyphenoxy)cyclohexane-1-carboxylic acid]	0.18	16	4	8	6.5 (≈ 3.88 µg/mL)	98	180
COc1cc(F)c(O[C@H]2CC[C@@H](C(=O)O)CC2)cc1C(=O)NC1=C(C(=O)Nc2ccc(F)c(C(F)(F)F)c2)CCC1 [Example 214, (1s,4s)-4-(2-Fluoro-5-((2-((4-fluoro-3-(trifluoromethyl)phenyl)carbamoyl)cyclopent-1-en-1-yl)carbamoyl)-4-methoxyphenoxy)cyclohexane-1-carboxylic acid]	0.090	< 3	2.3	5.3	400 (≈ 233 µg/mL)	115	–
COc1cc(F)c(O[C@H]2CC[C@@](C)(C(=O)O)CC2)cc1C(=O)Nc1ccc(C)cc1C(=O)NCC1(C)CCC1 [Example 216, (1s,4s)-4-(2-Fluoro-4-methoxy-5-((4-methyl-2-(((1-methylcyclobutyl)methyl)-carbamoyl)phenyl)carbamoyl)phenoxy)-1-methylcyclohexane-1-carboxylic acid]	0.64	< 3	4.2	19	3.1 (≈ 1.68 µg/mL)	132	210
COc1cc(F)c(Cc2cn[nH]c2)cc1C(=O)N[C@@H]1[C@H]2CC[C@H](C2)[C@@H]1C(=O)Nc1cccc(S(=O)(=O)C(F)(F)F)c1 [Example 219, (1R,2S,3R,4S)-3-(5-((1H-Pyrazol-4-yl)methyl)-4-fluoro-2-methoxybenzamido)-N-(3-((trifluoromethyl)sulfonyl)phenyl)bicyclo[2.2.1]heptane-2-carboxamide]	0.19	> 300	78	130	5 (≈ 2.97 µg/mL)	113	–
COc1cc(F)c(Cc2cnn(CC(=O)O)c2)cc1C(=O)N[C@@H]1[C@H]2CC[C@H](C2)[C@@H]1C(=O)Nc1cccc(S(=O)(=O)C(F)(F)F)c1 [Example 220, 2-(4-(2-Fluoro-4-methoxy-5-(((1S,2R,3S,4R)-3-((3-((trifluoromethyl)sulfonyl)phenyl)carbamoyl)bicyclo[2.2.1]heptan-2-yl)carbamoyl)benzyl)-1H-pyrazol-1-yl)acetic acid]	0.95	10	7.2	14	940 (≈ 613 µg/mL)	109	1500
COc1cc(F)c(-c2ncc(CCC(=O)O)s2)cc1C(=O)N[C@@H]1[C@H]2CC[C@H](C2)[C@@H]1C(=O)Nc1cccc(S(=O)(=O)C(F)(F)F)c1 [Example 243]	2.2	58	26	110	900 (≈ 603 µg/mL)	96	99
COc1cc(F)c(-c2ccc(CCC(=O)O)nn2)cc1C(=O)N[C@@H]1[C@H]2CC[C@H](C2)[C@@H]1C(=O)Nc1cccc(S(=O)(=O)C(F)(F)F)c1 [Example 245]	5	45	13	15	980 (≈ 651 µg/mL)	104	640
COc1cc(F)c(-c2ccc(S(N)(=O)=O)cc2)cc1C(=O)N[C@@H]1[C@H]2CC[C@H](C2)[C@@H]1C(=O)Nc1cccc(S(=O)(=O)C(F)(F)F)c1 [Example 248]	<3.3	74	18	32	2 (≈ 1.34 µg/mL)	108	220
COc1cc(F)c(-c2ccn(CCC(=O)O)c(=O)c2)cc1C(=O)N[C@@H]1[C@H]2CC[C@H](C2)[C@@H]1C(=O)Nc1cccc(S(=O)(=O)C(F)(F)F)c1 [Example 249]	3.4	43	11	15	190 (≈ 129 µg/mL)	113	320
COc1cc(F)c(-c2ccc(C(=O)O)cc2)cc1C(=O)N[C@@H]1[C@H]2CC[C@H](C2)[C@@H]1C(=O)Nc1cccc(S(=O)(=O)C(F)(F)F)c1 [Example 250]	<0.32	16	32	18	900 (≈ 571 µg/mL)	101	190
